Assay results reported in patent publication US11752125B2, “Anti-neuroinflammatory and protective compounds in Achillea fragrantissima” (THE STATE OF ISRAEL MINISTRY OF AGRICULTURE & RURAL …, priority 2013, dated 2023).

Experiments:
Format in all cases: cell-based, rat
p38 = assay: H2O2-induced p38 phosphorylation in astrocytes (ELISA); details: astrocytes preincubated 2 h, H2O2 175 μM 40 min
Procedure: Astrocytes were treated with 175 μM of H2O2 for 40 min following preincubation with achillolide A for 2 h. The levels of phosphorylated and total MEK1 (FIG. 40A), phosphorylated and total ERK1/2 (FIG. 40B), phosphorylated SAPK/JNK (FIG. 40C) and phosphorylated p38 (FIG. 40D) were measured by ELISA. The results are means±SEM of two experiments (n=4) for MEK1 and ERK 1/2, one experiment for SAPK/JNK and p38 (n=2). ***p<0.001.

GDNF = GDNF transcript levels in primary astrocytes (real-time PCR); details: 24 h treatment
Text: 1. Produce a primary culture of rat brain glial cells according to the method described in “Protective effects of the essential oil of salvia fruticosa and its constituents on astrocytic susceptibility to hydrogen peroxide-induced cell death”. 2009. A. Elmann, S. Mordechay, M. Rindner, O. Larkov, M. Elkabetz, U. Ravid. Journal of agricultural and food chemistry. 57(15):6636-41; 2. Separate astrocytes from other cell types in the culture according to the method described in “Protective effects of the essential oil of salvia fruticosa and its constituents on astrocytic susceptibility to hydrogen peroxide-induced cell death”. 2009. A. Elmann, S. Mordechay, M. Rindner, O. Larkov, M. Elkabetz, U. Ravid. Journal of agricultural and food chemistry. 57(15):6636-41; 3. Plate astrocytes in 6-wells PDL-coated plastic plates at a density of 2×10^6 cells/well, in DMEM/F12 containing 5% FBS, 2 millimolar glutamine, 100 U/ml penicillin, and 100 micrograms/ml streptomycin. 4. Incubate the culture for 24 hr (37° C., 5% CO2); 5. Aspirate medium and add fresh medium to the cells. 6. […]
Astrocytes were treated with achillolide A for 24 h. […] GDNF transcripts were measured using quantitative real time PCR. The results of three technical replicates were normalized to […] and are expressed as relative quantities of GDNF transcripts. […]

microglial cells = assay: Cellular antioxidant activity (ABAP peroxyl radicals) in microglial cells; details: ABAP 0.6 mM, dexamethasone at nanomolar concentrations
Procedure: Intracellular ROS production was detected using the non-fluorescent cell permeating compound, 2′7′-dichlorofluorescein diacetate (DCF-DA). DCF-DA is hydrolyzed by intracellular esterases and then oxidized by ROS to a fluorescent compound 2′-7′-DCF. Peroxyl radicals are generated by thermolysis of 2,2′-Azobis(amidinopropane) (ABAP) at physiological temperature. ABAP decomposes at approximately 1.36×10^−6s^−1 at 37° C., producing at most 1×10^12 radicals/mL/s. Microglial cells (130,000 cells/well) were plated in DMEM containing 2% FBS, 8.4 mM HEPES, 2 mM glutamine, 100 U/mL penicillin and 100 μg/mL streptomycin, onto 24 wells plates. In order to measure the ability of achillolide A to enter the cells and prevent the formation of DCF by ABAP-generated peroxyl radicals, cells were incubated for 1 h with achillolide A. Then cells were preloaded with DCF-DA for 30 min, washed twice with PBS, and ABAP (0.6 mM final concentration) was then added. The fluorescence, which indicates ROS levels, was measured in a plate reader with excitation at 485 nm and emission at 520 nm.
Cells were incubated for 1 h with different concentrations of achillolide A. Then, the cells were pre-loaded with DCF-DA for 30 min and washed. ABAP (0.6 mM) was added to the culture and ROS levels were measured at the indicated time points. […]

With `C=C1CCC2=C(CO)C(=O)O[C@H]2/C=C(\C)[C@H](OC(C)=O)CC1=O` [achillolide A] the “effect on H2O2-induced phosphorylation of p38” value (p38) was “inhibitory effect”, the “effect on GDNF transcript levels” value (GDNF) was “increases” and the “inhibition of the ABAP-induced increase in ROS fluorescence” value (microglial cells) was 54%.
